The values that follow are results of earlier work, collected in patent US10828414B2, “Magnetic filtration devices and methods related thereto” (The Regents of the University of California, priority 2015, dated 2020).

For the data set the following is noted: IAC, regardless of infused dose.

Regarding `COc1cccc2c1C(=O)c1c(O)c3c(c(O)c1C2=O)C[C@@](O)(C(=O)CO)C[C@@H]3O[C@H]1C[C@H](N)[C@H](O)[C@H](C)O1` [Dox, doxorubicin], the “first pass hepatic clearance” value is 50-70%.
